The target in one assay is T1, recombinant Aurora A (Homo sapiens, UniProt O14965).
T1 construct: purchased Upstate, Lake Placid, N.Y
T1 sequence (O14965 1-403): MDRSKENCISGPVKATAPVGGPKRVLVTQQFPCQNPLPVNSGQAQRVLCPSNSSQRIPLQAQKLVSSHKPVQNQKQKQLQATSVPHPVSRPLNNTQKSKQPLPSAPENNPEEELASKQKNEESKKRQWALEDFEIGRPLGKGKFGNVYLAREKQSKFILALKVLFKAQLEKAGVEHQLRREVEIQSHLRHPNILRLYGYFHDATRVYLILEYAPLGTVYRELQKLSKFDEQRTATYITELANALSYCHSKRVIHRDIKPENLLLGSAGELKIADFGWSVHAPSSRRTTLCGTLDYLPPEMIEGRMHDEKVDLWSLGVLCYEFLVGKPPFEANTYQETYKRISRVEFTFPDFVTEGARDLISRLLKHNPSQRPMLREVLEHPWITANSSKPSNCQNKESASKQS
In words: PanVera Z'-Lyte Aurora kinase assay. In kind it is biochemical. As to conditions: Z'-Lyte Ser/Thr 1 peptide 2 μM, ATP 10 μM, 1 h. On the procedure:
Compounds 7-14 above were tested for their potency against recombinant Aurora A (Upstate, Lake Placid, N.Y.) using the PanVera Z'-Lyte kinase assay kit—Ser/Thr 1 peptide (Invitrogen, Carlsbad, Calif.). Assays were carried out in kinase assay buffer (50 mM HEPES, pH 7.5, 10 mM MgCl2, 5 mM EGTA, 0.05% Brij-35, 2 mM DTT). Test compounds were initially dissolved in DMSO at 100× the highest tested concentration, then serially diluted to 4× test concentrations in kinase assay buffer. Next, Aurora A (final concentration 200-500 ng/mL), Z′-Lyte Ser/Thr 1 peptide (final concentration 2 μM) and ATP (final concentration 10 μM) were added according to the manufacturer's instructions. Assays were carried out in half-area 96-well white polystyrene assay plates (Corning, Corning, N.Y.) in a final volume of 20 μL. The reaction was allowed to proceed for 1 h at room temperature in the dark, at which point the development reagent and stop reagent were added according to the manufacturer's instructions. Coumarin (Ex. 400 nm, Em. 465 nm) and fluorescein (Ex. 400 nm, Em. 565 nm) fluorescence values were measured on a SpectraFluor Plus plate reader (Tecan, Durham, N.C.). The emission ratio (coumarin/fluorescein) was determined and used to calculate the percent phosphorylation for each well. Wells containing substrate but no kinase and wells containing a phosphopeptide control were used to set 0% and 100% phosphorylation values, respectively. Typically 20-40% of the substrate was phosphorylated in wells without inhibitor. Dose-response curves of relative Aurora A activity vs. inhibitor concentration were plotted with Grafit (Erithacus Software, Horley, Surrey, UK) and used to calculate IC50 values.

In the next assay the test system is HCT 116 Cells. In words: Aurora kinase whole cell cytotoxicity assay: Sulforhodamine B. It is filed as cell-based. As to conditions: Homo sapiens, HCT116, SRB staining, 96 hours incubation. As to the method: Human tumour-derived cell lines, HCT116 or MCF7 (ATCC) were plated in a 96 well plate in DMEM containing 10% fetal bovine serum and 2 mM L-glutamine at a density of 500 HCT116 cells or 1,000 MCF7 cells per well and incubated at 37° C., 5% CO2, for 24 hours prior to the addition of experimental compounds. Compounds were added using the dilution series indicated to duplicate plates and the cells were incubated in media plus compound for 96 hours. An additional plate was fixed in 10% TCA at the time of the addition of compound to provide a measurement of the cell population at time zero, the time of drug addition. Following the 96 hour incubation, cells were fixed in situ by gently aspirating off the culture media and then adding 50 ul of ice cold 10% TCA per well and incubation at 4° C. for 60 minutes. The plates were washed with tap water five times and allowed to air dry for 5 minute. 50 ul of a 0.4% (w/v) Sulforhodamine B solution in 1% (v/v) acetic acid was added per well and the cells were incubated for 30 minutes at room temperature. Following staining, plates were washed four times with 1% acetic acid to remove any unbound dye and then allowed to air dry for 5 minutes. The stain was solubilized with 100 ul of 10 mM Tris pH 10.5 per well and placed on an orbital rotator for 5 minutes. The absorbance was read at 570 nm. Percentage growth was calculated using the absorbance readings from the time zero plate (Tz) and the dilution series plate […] which included a column of cells grown in media without compound as a control (C) using the formulas: [(Ti−Tz)/(C−Tz)]×100 for concentrations for which Ti>/=Tz [(Ti−Tz)/Tz]×100 for concentrations for which Ti<Tz.
Three dose response parameters were calculated for each experimental agent. Growth inhibition of 50% (GI50) was calculated from [(Ti−Tz)/(C−Tz)]×100=50, which was the drug concentration resulting in a 50% reduction in the net protein increase (as measured by SRB staining) in control cells during the drug incubation. The drug concentration resulting in total growth inhibition (TGI) was calculated from Ti=Tz. The LC50 (concentration of drug resulting in a 50% reduction in the measured protein at the end of the drug treatment as compared to that at the beginning) indicating a net loss of cells following treatment ws calculated from [(Ti−Tz)/Tz]×100=−50. Values are calculated for each of these three parameters if the level of activity was reached; however, if the effect was not reached or was exceeded, the value for that parameter is expressed as greater or less than the maximum or minimum concentration tested.
On the technique in general: In SRB staining, fixed cells bind dye roughly in proportion to their protein.

Consider 18 compounds from US8153630B2, “Kinase inhibitors” (Miikana Therapeutics, Inc., priority 2004, dated 2012).

By IC50 is commonly meant the point on the concentration scale where inhibition reaches its midpoint. For orientation: GI50 means the concentration giving 50% growth inhibition. Low readings indicate more potent growth inhibition, high ones less potent growth inhibition.

On to `Cc1cc(Nc2nc(Sc3ccc(NC(=O)C4CC4)cc3)nc(C(=O)N3CCN(C)CC3)c2N)n[nH]1` [Compound 68], for which, at recombinant Aurora A, the IC50 is 1000 to 10000 nM. The GI50 in the assay on HCT 116 Cells lay in the range of 1000 to 10000 nM.

`COCCNC(=O)c1nc(Sc2ccc(NC(=O)C3CC3)cc2)nc(Nc2cc(C)[nH]n2)c1N` [Compound 43, N-(2-Methoxyethyl) 2-(4-cyclopropanecarboxamidophenylsulfanyl)-5-amino-6-(5-methylpyrazol-3-ylamino)-4-pyrimidinecarboxamide]: the IC50 on recombinant Aurora A was under 100 nM. Moreover, the GI50 in the assay on HCT 116 Cells lay in the range of 100 to 1000 nM.

For the compound `Cc1cc(Nc2nc(Sc3ccc(NC(=O)C4CC4)cc3)nc(C(=O)OCCN3CCCCC3)c2N)n[nH]1` [Compound 48, 2-Piperidin-1-ylethyl 2-(4-cyclopropanecarboxamidophenylsulfanyl)-5-amino-6-(5-methylpyrazol-3-ylamino)-4-pyrimidinecarboxylate], on recombinant Aurora A, the IC50 is under 100 nM. Also, in the assay on HCT 116 Cells, the GI50 was in the range of 1000 to 10000 nM.

Regarding `CCOC(=O)c1nc(Nc2ccc(NC(=O)C3CC3)cc2)nc(Nc2cc(C)[nH]n2)c1N` [Compound 36, Ethyl 2-({4-[(cyclopropylcarbonyl)amino]phenyl}amino)-5-amino-6-(5-methylpyrazol-3-ylamino)-4-pyrimidinecarboxylate], the IC50 at recombinant Aurora A is under 100 nM. The compound also came in with a GI50 in the assay with HCT 116 Cells of 1000 to 10000 nM.

On to `Cc1cc(Nc2nc(Sc3ccc(NC(=O)C4CC4)cc3)nc(C(=O)NCCN3CCCCC3)c2N)n[nH]1` [Compound 17, N-(2-Piperidin-1-ylethyl) 2-(4-cyclopropanecarboxamidophenylsulfanyl)-5-amino-6-(5-methylpyrazol-3-ylamino)-4-pyrimidinecarboxamide], for which the IC50 on recombinant Aurora A was under 100 nM. In the assay on HCT 116 Cells, this compound showed a GI50 of 100 to 1000 nM.

On to `Cc1cc(Nc2nc(Sc3ccc(NC(=O)C4CC4)cc3)nc(C(=O)NC3CCOCC3)c2N)n[nH]1` [Compound 63, N-Tetrahydro-2H-pyran-4-yl 2-(4-cyclopropanecarboxamidophenylsulfanyl)-5-amino-6-(5-methylpyrazol-3-ylamino)-4-pyrimidinecarboxamide], for which the IC50 at recombinant Aurora A is under 100 nM. For the same compound, the GI50 with HCT 116 Cells lay within 100 to 1000 nM.

For `Cc1cc(Nc2nc(Sc3ccc(NC(=O)C4CC4)cc3)nc(C(=O)OC3CCN(C)CC3)c2N)n[nH]1` [Compound 47, 1-Methylpiperidin-4-yl 2-(4-cyclopropanecarboxamidophenylsulfanyl)-5-amino-6-(5-methylpyrazol-3-ylamino)-4-pyrimidinecarboxylate], the IC50 at recombinant Aurora A is under 100 nM. In the assay with HCT 116 Cells, this compound came in with a GI50 of 100 to 1000 nM.

With `Cc1cc(Nc2nc(Sc3ccc(NC(=O)C4CC4)cc3)nc(C(=O)N3CCSCC3)c2N)n[nH]1` [Compound 45, Thiomorpholin-4-yl 2-(4-cyclopropanecarboxamidophenylsulfanyl)-5-amino-6-(5-methylpyrazol-3-ylamino)-4-pyrimidinecarboxamide], the IC50 at recombinant Aurora A is under 100 nM. In addition, in the assay on HCT 116 Cells, the GI50 lay within 1000 to 10000 nM.

Turning to `Cc1cc(Nc2nc(Sc3ccc(NC(=O)C4CC4)cc3)nc(C(=O)NC(C)(C)C)c2N)n[nH]1` [Compound 57, N-(tert-Butyl) 2-(4-cyclopropanecarboxamidophenylsulfanyl)-5-amino-6-(5-methylpyrazol-3-ylamino)-4-pyrimidinecarboxamide], at recombinant Aurora A, the IC50 lay in the range of 100 to 1000 nM. In the assay on HCT 116 Cells, the GI50 was in the range of 1000 to 10000 nM.

In the case of `Cc1cc(Nc2nc(Sc3ccc(NC(=O)C4CC4)cc3)nc(C(=O)N3CCOCC3)c2N)n[nH]1` [Compound 44, Morpholin-4-yl 2-(4-cyclopropanecarboxamidophenylsulfanyl)-5-amino-6-(5-methylpyrazol-3-ylamino)-4-pyrimidinecarboxamide], the IC50 at recombinant Aurora A was under 100 nM. Also, the GI50 in the assay with HCT 116 Cells lay within 1000 to 10000 nM.

On to `CSCCNC(=O)c1nc(Sc2ccc(NC(=O)C3CC3)cc2)nc(Nc2cc(C)[nH]n2)c1N` [Compound 56, N-(2-Methylthioethyl) 2-(4-cyclopropanecarboxamidophenylsulfanyl)-5-amino-6-(5-methylpyrazol-3-ylamino)-4-pyrimidinecarboxamide], for which the half-maximal inhibitory concentration (IC50) at recombinant Aurora A was under 100 nM. In the assay with HCT 116 Cells, this compound came in with a GI50 of 100 to 1000 nM.

Consider `Cc1cc(Nc2nc(Sc3ccc(NC(=O)C4CC4)cc3)nc(C(=O)OCCN(C)C)c2N)n[nH]1` [Compound 46, 2-Dimethylaminoethyl 2-(4-cyclopropanecarboxamidophenylsulfanyl)-5-amino-6-(5-methylpyrazol-3-ylamino)-4-pyrimidinecarboxylate], for which the IC50 on recombinant Aurora A was under 100 nM. The same compound returned a GI50 in the assay on HCT 116 Cells of 100 to 1000 nM.

As to `Cc1cc(Nc2nc(Sc3ccc(NC(=O)C4CC4)cc3)nc(C(=O)N3CCCCC3)c2N)n[nH]1` [Compound 53, Piperidin-1-yl 2-(4-cyclopropanecarboxamidophenylsulfanyl)-5-amino-6-(5-methylpyrazol-3-ylamino)-4-pyrimidinecarboxamide], at recombinant Aurora A, the IC50 is under 100 nM. In the assay on HCT 116 Cells, this compound had a GI50 of 100 to 1000 nM.

`COCCOC(=O)c1nc(Sc2ccc(NC(=O)C3CC3)cc2)nc(Nc2cc(C)[nH]n2)c1N` [Compound 40, 2-Methoxyethyl 2-(4-cyclopropanecarboxamidophenylsulfanyl)-5-amino-6-(5-methylpyrazol-3-ylamino)-4-pyrimidinecarboxylate]: the IC50 on recombinant Aurora A is under 100 nM. The GI50 with HCT 116 Cells lay in the range of 100 to 1000 nM.

As for `Cc1cc(Nc2nc(Sc3ccc(NC(=O)C4CC4)cc3)nc(C(=O)NCCN(C)C)c2N)n[nH]1` [Compound 12, N-[2-(N,N-dimethylamino)ethyl]-2-(4-cyclopropane-carboxamidophenylsulfanyl)-5-amino-6-(5-methylpyrazol-3-ylamino)-4-pyrimidine carboxamide], on recombinant Aurora A, the IC50 was under 100 nM. In the assay with HCT 116 Cells, the GI50 lay in the range of 1000 to 10000 nM.

On to `Cc1cc(Nc2nc(Sc3ccc(NC(=O)C4CC4)cc3)nc(C(=O)OC3CCCCC3)c2N)n[nH]1` [Compound 42, Cyclohexyl 2-(4-cyclopropanecarboxamidophenylsulfanyl)-5-amino-6-(5-methylpyrazol-3-ylamino)-4-pyrimidinecarboxylate], for which the IC50 at recombinant Aurora A is under 100 nM. The GI50 in the assay on HCT 116 Cells lay within 100 to 1000 nM.

As for `Cc1cc(Nc2nc(Sc3ccc(NC(=O)C4CC4)cc3)nc(C(=O)NCC(F)(F)F)c2N)n[nH]1` [Compound 65, N-(2,2,2-Trifluoroethyl) 2-(4-cyclopropanecarboxamidophenylsulfanyl)-5-amino-6-(5-methylpyrazol-3-ylamino)-4-pyrimidinecarboxamide], the IC50 on recombinant Aurora A was under 100 nM. This compound had a GI50 in the assay with HCT 116 Cells of 100 to 1000 nM.

With `Cc1cc(Nc2nc(Sc3ccc(NC(=O)C4CC4)cc3)nc(C(=O)NCC3CCCO3)c2N)n[nH]1` (stereo not drawn) [Compound 54, N-(Tetrahydrofuran-2-ylmethyl) 2-(4-cyclopropanecarboxamidophenylsulfanyl)-5-amino-6-(5-methylpyrazol-3-ylamino)-4-pyrimidinecarboxamide], on recombinant Aurora A, the IC50 was under 100 nM. In the assay on HCT 116 Cells, the GI50 lay within 100 to 1000 nM.
